Source: ChEMBL document CHEMBL1201862, “PubChem BioAssay data set” (2004)
Structures can show the parent of a compound that is named as a salt. Activity calls are given as the source filed them.

Columns and labels:
[1] = NIH-3T3 fibroblast cytotoxicity, dose response, cytotoxicity control, cell-based, fluorescence, Alamar Blue, secondary assay (AID 2327); format: functional;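 also: NIH-3T3 mouse fibroblasts cultured with fluconazole at 8 µg/mL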
[2] = viability of HCT116 lacking mutant beta-catenin – cell-based, human colon tumor, dose response (AID 1045); format: functional;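 also: HCT116 colon tumor cells with beta catenin knocked out; cells exposed to compound for 60 hours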
[3] = viability of PTEN-deleted HCT116 cells – cell-based, HCT116 PTEN knockout, dose response (AID 1047); format: functional;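 also: HCT116 colon tumor cells with PTEN knocked out; cells exposed to compound for 60 hours before readout; potency for loss of cell viability measured by luminescence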
[4] = target: Heat shock protein HSP 90-alpha (Homo sapiens, UniProt P07900); format: functional, organism-based
[5] = target: NACHT, LRR and PYD domains-containing protein 1 (Homo sapiens, UniProt Q9C000); test: NALP1 inhibitors in yeast, dose response, luminescent (AID 488860); format: functional
Sequence of NACHT, LRR and PYD domains-containing protein 1 (Q9C000 1-1212 limits assumed): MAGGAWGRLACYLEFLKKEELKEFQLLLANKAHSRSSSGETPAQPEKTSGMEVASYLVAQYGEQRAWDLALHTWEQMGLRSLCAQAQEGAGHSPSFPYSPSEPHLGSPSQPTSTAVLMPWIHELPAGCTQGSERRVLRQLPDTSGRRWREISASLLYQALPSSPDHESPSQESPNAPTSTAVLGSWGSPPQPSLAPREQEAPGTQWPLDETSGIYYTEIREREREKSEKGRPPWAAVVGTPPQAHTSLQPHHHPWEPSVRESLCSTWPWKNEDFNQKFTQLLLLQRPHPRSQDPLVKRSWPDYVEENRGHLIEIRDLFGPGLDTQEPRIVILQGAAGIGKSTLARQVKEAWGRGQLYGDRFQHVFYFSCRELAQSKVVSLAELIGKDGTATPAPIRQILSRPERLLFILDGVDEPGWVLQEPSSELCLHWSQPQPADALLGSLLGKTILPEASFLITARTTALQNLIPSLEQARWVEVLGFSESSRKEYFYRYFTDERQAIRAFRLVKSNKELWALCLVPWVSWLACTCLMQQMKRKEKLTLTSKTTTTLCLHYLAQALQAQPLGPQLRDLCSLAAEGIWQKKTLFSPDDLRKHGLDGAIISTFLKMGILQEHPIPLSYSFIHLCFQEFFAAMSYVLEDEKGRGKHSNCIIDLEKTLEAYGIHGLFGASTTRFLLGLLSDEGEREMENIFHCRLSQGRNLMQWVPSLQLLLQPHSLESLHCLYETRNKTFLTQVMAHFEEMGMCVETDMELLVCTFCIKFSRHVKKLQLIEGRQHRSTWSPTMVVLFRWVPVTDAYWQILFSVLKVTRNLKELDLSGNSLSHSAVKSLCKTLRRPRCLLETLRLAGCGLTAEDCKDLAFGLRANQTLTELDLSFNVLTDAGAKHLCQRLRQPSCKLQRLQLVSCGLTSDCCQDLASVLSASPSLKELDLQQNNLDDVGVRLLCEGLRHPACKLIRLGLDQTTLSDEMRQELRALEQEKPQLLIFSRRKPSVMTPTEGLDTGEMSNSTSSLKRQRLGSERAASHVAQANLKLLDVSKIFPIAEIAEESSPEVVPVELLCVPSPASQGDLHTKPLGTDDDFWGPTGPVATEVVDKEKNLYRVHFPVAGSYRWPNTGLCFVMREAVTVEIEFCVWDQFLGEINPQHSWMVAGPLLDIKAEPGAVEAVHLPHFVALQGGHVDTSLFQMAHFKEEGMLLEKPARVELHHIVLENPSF
Sequence of NACHT, LRR and PYD domains-containing protein 1 (Q9C000 1213-1473 limits assumed): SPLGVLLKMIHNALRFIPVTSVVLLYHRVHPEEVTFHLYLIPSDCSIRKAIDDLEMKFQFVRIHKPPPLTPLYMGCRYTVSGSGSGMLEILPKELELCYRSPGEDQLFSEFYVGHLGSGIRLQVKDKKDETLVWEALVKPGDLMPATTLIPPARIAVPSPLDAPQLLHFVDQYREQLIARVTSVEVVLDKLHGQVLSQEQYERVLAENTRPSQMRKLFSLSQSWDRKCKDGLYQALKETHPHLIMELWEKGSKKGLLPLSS

[6] = fluconazole-exposed Candida albicans growth modulators – fluorescence, retest, confirmation (AID 2467); format: functional, cell-based
Saccharomyces cerevisiae = test: S. cerevisiae Caspase-1/ASC signal blockers IC50, NALP1 inhibitor project selectivity test (AID 488863); format: functional, organism-based
[7] = Trypanosoma cruzi growth suppression in host cells – NIH3T3 host cells, beta-gal luminescence, confirmation (AID 2044); format: functional, cell-based;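 also: intracellular parasites grown in NIH/3T3 mouse fibroblasts as host cells; luminescent beta-galactosidase reporter signal from transgenic T. cruzi replicating inside host cells; inhibitors lower the luminescence signal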
[8] = NIH3T3 cell viability loss – ATP luminescence, mouse fibroblasts, counter-screen, dose response (AID 2010); format: functional, cell-based;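 also: cells exposed to compound for about 90 hours before reading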
Salmon testes DNA = test: acridine orange-DNA binding displacement – biochemical, fluorescence polarization, cherry-picked samples, set 2, artefact control for KSHV LANA DNA-binding inhibitor project, dose response (AID 504727); parameters: species or system Salmonidae
ORF 73 = ORF 73 (Human herpesvirus 8, UniProt O40947); test: KSHV LANA DNA-binding disruption – biochemical, fluorescence polarization, cherry-picked samples, dose response (AID 504725); parameters: species or system Human gammaherpesvirus 8;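 also: fluorescence polarization of a labeled DNA duplex reporting LANA DNA binding; potency is for inhibitors that block LANA binding to the DNA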
[9] = target: T1, Zinc finger protein mex-5 (Caenorhabditis elegans, UniProt Q9XUB2); test: potency of MEX-5 RNA-binding blockers – biochemical, C. elegans, fluorescence polarization, dose response (AID 1960)
T1 sequence (Q9XUB2 whole entry): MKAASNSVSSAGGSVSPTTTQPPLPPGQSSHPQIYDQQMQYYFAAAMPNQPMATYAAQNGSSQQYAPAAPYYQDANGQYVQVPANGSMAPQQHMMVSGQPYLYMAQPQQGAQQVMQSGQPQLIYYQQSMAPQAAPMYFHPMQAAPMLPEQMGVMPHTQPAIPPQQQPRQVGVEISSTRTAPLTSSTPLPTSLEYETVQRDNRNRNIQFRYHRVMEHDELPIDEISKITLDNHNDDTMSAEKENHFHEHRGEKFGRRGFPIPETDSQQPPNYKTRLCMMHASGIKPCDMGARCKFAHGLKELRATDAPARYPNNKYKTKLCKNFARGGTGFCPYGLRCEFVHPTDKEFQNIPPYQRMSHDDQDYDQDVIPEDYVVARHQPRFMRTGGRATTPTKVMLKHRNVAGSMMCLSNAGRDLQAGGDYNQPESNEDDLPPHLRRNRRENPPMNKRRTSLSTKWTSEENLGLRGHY

[10] = target: T2, RNA-binding protein pos-1 (Caenorhabditis elegans, UniProt G5EF15); test: disruptors of C. elegans POS-1 RNA interaction – biochemical, fluorescence polarization, dose response (AID 1964);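 also: purified POS-1 fused to maltose binding protein made in E. coli; potency of compounds blocking POS-1 binding to fluorescent RNA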
T2 sequence (G5EF15 whole entry): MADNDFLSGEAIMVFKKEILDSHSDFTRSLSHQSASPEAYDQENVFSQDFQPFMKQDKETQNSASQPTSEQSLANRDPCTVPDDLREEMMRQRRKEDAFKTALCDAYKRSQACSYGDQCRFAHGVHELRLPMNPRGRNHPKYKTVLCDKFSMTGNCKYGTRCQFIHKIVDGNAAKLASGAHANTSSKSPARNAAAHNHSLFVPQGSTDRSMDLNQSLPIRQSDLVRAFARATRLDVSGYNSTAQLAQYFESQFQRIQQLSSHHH

[11] = target: T3, Intestinal-type alkaline phosphatase (Homo sapiens, UniProt P09923); test: human intestinal alkaline phosphatase activators, dose response, biochemical, luminescence, uHTS hits (AID 463120); format: functional
T3 sequence (P09923 whole entry): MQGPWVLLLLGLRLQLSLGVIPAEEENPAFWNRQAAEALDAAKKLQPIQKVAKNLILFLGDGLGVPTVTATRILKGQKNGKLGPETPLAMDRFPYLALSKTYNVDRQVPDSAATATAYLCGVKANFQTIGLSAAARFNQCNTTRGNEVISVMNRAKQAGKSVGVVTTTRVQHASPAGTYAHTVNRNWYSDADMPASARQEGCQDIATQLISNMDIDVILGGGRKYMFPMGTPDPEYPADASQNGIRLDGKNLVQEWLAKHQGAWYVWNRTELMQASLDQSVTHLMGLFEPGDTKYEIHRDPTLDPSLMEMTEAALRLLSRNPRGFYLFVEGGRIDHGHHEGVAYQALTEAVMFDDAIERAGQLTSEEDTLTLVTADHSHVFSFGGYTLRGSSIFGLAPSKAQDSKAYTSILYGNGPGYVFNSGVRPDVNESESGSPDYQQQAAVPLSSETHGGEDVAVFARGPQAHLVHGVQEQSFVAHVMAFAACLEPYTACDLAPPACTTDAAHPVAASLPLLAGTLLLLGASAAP

[12] = target: T3, Intestinal-type alkaline phosphatase; test: activation of human intestinal alkaline phosphatase – biochemical, luminescent, uHTS hits, set 2, dose response (AID 488817); format: functional;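 also: potency of activators that raise enzyme activity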
[13] = target: T4, Polyadenylate-binding protein 1 (Homo sapiens, UniProt P11940); test: MLLE domain peptide-binding blockers, IC50 – biochemical, fluorescence polarization, FITC-PAM2 peptide, dose response (AID 602259); format: functional; settings: read-out: IC50_Mean
T4 sequence (P11940 whole entry, the tested form may be a part): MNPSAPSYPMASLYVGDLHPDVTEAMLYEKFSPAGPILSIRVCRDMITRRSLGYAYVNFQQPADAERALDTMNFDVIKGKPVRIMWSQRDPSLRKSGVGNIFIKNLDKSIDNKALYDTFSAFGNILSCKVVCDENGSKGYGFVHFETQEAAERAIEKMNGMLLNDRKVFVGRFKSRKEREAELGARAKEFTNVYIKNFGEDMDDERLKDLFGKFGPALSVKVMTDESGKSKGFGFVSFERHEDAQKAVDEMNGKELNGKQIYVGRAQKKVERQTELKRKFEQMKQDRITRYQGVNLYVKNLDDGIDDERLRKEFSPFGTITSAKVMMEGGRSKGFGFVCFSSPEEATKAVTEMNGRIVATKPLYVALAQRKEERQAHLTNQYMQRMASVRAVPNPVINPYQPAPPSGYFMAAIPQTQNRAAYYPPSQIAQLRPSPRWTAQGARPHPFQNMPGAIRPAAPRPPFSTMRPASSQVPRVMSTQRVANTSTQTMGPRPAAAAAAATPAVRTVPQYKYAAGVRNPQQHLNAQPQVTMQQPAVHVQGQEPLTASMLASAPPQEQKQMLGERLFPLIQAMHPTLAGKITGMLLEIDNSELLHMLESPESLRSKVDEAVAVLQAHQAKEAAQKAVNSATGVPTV

SUMO-activating enzyme [14] = target: T5, SUMO-activating enzyme (Homo sapiens, UniProt Q9UBT2); test: blockers of SAE1/SAE2–UBC9 SUMO transfer – biochemical, HTRF, uHTS, primary screen (AID 2006); format: protein-complex assay
T5 sequence (Q9UBE0 whole entry): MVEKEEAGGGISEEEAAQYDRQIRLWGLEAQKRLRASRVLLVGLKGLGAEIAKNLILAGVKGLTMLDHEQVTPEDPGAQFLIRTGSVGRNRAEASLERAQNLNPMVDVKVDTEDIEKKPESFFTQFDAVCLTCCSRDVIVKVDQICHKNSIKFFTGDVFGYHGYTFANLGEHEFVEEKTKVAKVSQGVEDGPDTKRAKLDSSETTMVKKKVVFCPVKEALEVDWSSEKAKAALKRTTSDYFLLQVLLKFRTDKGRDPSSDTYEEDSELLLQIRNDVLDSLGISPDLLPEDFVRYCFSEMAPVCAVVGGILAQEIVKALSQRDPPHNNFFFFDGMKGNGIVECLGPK
T5 sequence (Q9UBT2 whole entry): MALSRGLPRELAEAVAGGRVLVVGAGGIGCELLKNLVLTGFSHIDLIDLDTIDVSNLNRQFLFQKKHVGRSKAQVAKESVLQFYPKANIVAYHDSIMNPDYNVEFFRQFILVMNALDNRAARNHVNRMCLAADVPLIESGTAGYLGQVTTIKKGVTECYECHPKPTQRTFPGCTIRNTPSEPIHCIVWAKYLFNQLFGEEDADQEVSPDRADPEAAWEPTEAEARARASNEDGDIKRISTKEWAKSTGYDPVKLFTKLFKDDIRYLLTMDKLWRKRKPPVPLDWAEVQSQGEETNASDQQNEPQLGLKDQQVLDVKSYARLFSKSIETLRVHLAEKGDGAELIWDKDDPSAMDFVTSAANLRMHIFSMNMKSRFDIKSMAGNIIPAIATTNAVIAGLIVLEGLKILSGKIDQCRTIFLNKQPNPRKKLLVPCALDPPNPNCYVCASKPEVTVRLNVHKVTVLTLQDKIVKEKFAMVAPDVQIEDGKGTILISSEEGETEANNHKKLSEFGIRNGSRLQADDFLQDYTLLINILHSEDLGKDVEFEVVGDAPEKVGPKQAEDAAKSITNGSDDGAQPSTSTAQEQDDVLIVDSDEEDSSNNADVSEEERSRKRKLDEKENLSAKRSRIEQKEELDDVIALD

SUMO-activating enzyme [15] = target: T5, SUMO-activating enzyme; test: blockers of UBC9-mediated SUMO conjugation – biochemical, AlphaScreen, SUMOylation inhibitor project, confirmation (AID 2018); format: functional
[16] = bead-based luminescence quenchers, dual-tagged ARNT – biochemical, AlphaScreen, cherry-pick, artefact control for ARNT-TACC3 interaction inhibitor project, dose response (AID 651705); format: functional;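 also: AlphaScreen bead proximity signal that flags compounds interfering with the detection technology; potency reflects signal decrease which marks the compound as an assay artifact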
[17] = target: Intestinal-type alkaline phosphatase (Mus musculus, UniProt P24822); test: PubChem AID 488874; format: functional
Sequence of Intestinal-type alkaline phosphatase (Mus musculus, UniProt P24822) (P24822 whole entry): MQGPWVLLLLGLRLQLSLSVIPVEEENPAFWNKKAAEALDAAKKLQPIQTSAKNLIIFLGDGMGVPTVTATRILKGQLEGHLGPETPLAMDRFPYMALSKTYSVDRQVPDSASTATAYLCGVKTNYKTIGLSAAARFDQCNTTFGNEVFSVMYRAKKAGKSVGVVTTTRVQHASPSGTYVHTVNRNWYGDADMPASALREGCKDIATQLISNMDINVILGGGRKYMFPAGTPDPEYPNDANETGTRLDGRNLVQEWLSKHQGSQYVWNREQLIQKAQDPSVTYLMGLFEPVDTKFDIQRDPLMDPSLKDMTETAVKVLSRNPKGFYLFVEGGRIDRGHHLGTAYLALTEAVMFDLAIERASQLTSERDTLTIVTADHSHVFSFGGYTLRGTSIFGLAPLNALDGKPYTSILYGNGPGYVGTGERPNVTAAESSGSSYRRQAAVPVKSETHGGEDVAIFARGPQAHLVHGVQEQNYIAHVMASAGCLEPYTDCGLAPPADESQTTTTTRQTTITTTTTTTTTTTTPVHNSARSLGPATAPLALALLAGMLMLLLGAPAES

[18] = target: T6, Alkaline phosphatase, tissue-nonspecific isozyme (Homo sapiens, UniProt P05186); test: activation of tissue-nonspecific alkaline phosphatase – biochemical, TNAP isozyme, human IAP uHTS hits, selectivity assay for human IAP activator project, dose response (AID 488886); format: functional;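 also: potency of compounds raising TNAP activity as a selectivity check on IAP activators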
T6 sequence (P05186 whole entry): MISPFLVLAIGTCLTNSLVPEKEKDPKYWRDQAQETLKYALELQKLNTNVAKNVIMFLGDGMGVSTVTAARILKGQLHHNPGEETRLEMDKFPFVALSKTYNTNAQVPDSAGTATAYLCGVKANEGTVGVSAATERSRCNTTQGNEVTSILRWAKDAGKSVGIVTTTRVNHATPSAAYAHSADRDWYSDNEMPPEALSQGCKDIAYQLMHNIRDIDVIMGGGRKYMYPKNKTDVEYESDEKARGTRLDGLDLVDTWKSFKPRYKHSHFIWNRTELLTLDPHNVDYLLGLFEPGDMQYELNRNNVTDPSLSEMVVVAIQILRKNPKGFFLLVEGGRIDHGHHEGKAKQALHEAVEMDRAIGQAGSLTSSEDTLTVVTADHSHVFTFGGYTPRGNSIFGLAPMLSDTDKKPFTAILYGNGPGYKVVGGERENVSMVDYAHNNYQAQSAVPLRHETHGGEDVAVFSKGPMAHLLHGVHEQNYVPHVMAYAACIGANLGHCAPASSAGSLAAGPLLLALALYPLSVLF

[19] = target: T4, Polyadenylate-binding protein 1; test: MLLE binding blockers, Cy5 peptide tracer – biochemical, fluorescence polarization, Cy5-PAM2 peptide, secondary, miRNA deadenylation inhibitor project, dose response (AID 602260); format: functional; settings: read-out: IC50_Mean

Cc1ccc(-n2nnnc2C(Cl)c2nnnn2-c2ccc(C)cc2)cc1
EC50 [1]: > 160 µM (inactive)
EC50 [2]: 17.5 µM (active)
EC50 [3]: 17.6 µM (active)
AC50 [4]: 0.635 µM (active)
IC50 [5]: 11 µM (active)
EC50 [6]: > 38 µM (not active)
IC50 (Saccharomyces cerevisiae): 6.59 µM (active)
EC50 [7]: 3.31 µM (active)
EC50 [8]: > 60 µM (not active)

Cc1ccc(N(CC(=O)N2CCOCC2)S(C)(=O)=O)cc1
AC50 (Salmon testes DNA): 70.1 µM (active)
AC50 (ORF 73): 20.1 µM (active)

NC(CO)C(=O)NNCc1ccc(O)c(O)c1O (configuration not stated) [BENSERAZIDE HYDROCHLORIDE]
EC50 [9]: 0.112 µM (active)
EC50 [10]: 37.5 µM (active)
EC50 [11]: 5.47 µM (active)
EC50 [12]: 8.88 µM (active)
IC50 [13]: 45 µM (inactive)
IC50 (SUMO-activating enzyme [14]): 23.2 µM (active)
IC50 (SUMO-activating enzyme [15]): 1.66 µM (active)
AC50 [16]: 96.7 µM (active)
IC50 [17]: 50.9 µM (active)
EC50 [18]: > 100 µM (inactive)
IC50 [19]: > 66 µM (inactive)
